Source: US20140088187A1, “ANDROGEN RECEPTOR INHIBITORS AND METHODS OF USE THEREOF” (BETH ISRAEL DEACONESS MEDICAL CENTER, priority 2010, published 2014)

Columns and labels:
AR in C4-2 cells = molecular target: T1, AR in C4-2 cells (Homo sapiens, UniProt P10275, T878A)
T1 sequence (P10275 1-920 T878A): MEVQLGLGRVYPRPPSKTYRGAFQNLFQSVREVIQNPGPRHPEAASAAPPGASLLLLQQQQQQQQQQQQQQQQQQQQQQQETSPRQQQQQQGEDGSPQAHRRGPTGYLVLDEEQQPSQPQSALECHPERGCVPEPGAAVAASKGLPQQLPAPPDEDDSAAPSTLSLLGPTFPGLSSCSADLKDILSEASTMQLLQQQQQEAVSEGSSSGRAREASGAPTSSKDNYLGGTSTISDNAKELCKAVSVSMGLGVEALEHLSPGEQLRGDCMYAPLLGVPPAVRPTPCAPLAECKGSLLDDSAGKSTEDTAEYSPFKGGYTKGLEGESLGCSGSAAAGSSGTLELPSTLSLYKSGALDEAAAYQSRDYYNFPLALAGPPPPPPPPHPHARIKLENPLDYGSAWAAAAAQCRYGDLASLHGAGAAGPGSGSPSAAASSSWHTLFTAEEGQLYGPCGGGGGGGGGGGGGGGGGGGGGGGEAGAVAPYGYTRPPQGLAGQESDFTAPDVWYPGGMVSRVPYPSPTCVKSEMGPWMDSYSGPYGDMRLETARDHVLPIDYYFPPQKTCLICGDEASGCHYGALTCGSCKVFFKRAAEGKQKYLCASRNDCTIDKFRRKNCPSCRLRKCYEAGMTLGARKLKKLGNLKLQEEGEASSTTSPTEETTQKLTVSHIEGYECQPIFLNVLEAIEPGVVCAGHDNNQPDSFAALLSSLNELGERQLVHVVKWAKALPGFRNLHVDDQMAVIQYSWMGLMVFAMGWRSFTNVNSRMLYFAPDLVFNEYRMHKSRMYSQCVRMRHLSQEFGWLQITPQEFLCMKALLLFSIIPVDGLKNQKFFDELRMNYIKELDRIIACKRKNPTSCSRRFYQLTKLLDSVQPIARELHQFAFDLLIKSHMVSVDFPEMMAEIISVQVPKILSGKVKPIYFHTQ

AR = molecular target: T2, AR (Mus musculus, UniProt P19091); assay: Dose ranging experiment in intact adult male mice (seminal vesicles, prostate epithelium); type: in vivo
T2 construct: we first treated adult male mice with compound A89 in a dose ranging experiment; from tissue; host or cells: seminal vesicles and prostate epithelium of intact adult male mice
T2 sequence (P19091 1-899): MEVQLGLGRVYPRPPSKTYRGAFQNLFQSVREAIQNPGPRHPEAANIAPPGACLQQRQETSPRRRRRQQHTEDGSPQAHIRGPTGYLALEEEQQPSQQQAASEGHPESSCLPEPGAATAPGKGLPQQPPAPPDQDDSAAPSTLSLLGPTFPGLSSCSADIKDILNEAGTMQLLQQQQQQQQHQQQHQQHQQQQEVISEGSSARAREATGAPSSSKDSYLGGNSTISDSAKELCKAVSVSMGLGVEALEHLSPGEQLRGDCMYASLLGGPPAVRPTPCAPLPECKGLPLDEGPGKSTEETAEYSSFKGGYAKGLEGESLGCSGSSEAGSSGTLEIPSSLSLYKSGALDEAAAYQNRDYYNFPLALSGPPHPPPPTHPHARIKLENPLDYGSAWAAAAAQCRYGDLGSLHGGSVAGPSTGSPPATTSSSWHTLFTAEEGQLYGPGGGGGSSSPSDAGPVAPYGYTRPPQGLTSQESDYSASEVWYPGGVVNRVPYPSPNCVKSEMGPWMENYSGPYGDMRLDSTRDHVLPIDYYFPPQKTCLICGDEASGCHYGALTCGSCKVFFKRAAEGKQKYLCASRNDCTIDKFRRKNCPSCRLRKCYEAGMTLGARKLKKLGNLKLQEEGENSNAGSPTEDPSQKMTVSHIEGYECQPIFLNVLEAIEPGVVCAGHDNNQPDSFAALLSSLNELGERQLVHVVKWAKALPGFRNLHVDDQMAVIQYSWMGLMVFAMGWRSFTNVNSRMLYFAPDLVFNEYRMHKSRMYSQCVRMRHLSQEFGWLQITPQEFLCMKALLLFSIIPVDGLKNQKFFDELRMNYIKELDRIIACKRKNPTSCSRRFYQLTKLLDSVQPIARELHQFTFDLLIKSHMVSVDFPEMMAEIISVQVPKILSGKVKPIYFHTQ
Experimental: FIG. 17. Compound A89 maintains activity in vivo and is efficacious in a CRPC xenograft model. (a) Morphological changes in seminal vesicles of intact adult male mice following treatment with DMSO vehicle, Bic (0.5 mg/day) or A89 (mg/day as indicated) for 7 days. (b) H&E stained cross-sections of prostate ductal epithelium from above mice treated with DMSO, Bic, or A89 (10 mg/day). (c) AR and Ki-67 staining in pre- and post-castration relapsed VCaP xenograft tumor sections following treatment with A89 (5 mg/day) or Bic (0.5 mg/day) for 7 days. (d) mRNA levels of AR and AR-target genes in post-castration relapsed VCaP xenograft tumors following treatment with A89 (5 mg/day) for 7 days. Error bars represent S.E.M.
To evaluate the activity of the chemotype A compounds in vivo we first treated adult male mice with compound A89 in a dose ranging experiment from 0.5 mg/day to 10 mg/day via intraperitoneal injection for 7 days. […] We next evaluated A89 in VCaP xenograft tumors that had relapsed following an initial response to castration, which is a model of CRPC.

[1] = steroid depleted medium, data not shown
[2] = steroid depleted medium, dose response

SMILES: CCOc1cc(F)c(S(=O)(=O)NCc2ccc3c(c2)OCO3)cc1F [Compound A89, N-(1,3-benzodioxol-5-ylmethyl)-4-ethoxy-2,5-difluorobenzenesulfonamide]
- basal PSA (AR in C4-2 cells; 24 hours (FIG. 10a)): decrease in basal PSA
- total AR protein levels (AR in C4-2 cells; 24 hours (FIG. 10a)): noteworthy decrease
- decrease in AR protein in the presence of proteasome inhibitor (AR in C4-2 cells; proteasome inhibitors (MG115 and MG132)): blocked in the presence of a proteasome inhibitor
- PSA expression (AR in C4-2 cells; [1]): reduced
- nuclear AR levels (AR in C4-2 cells; [1]): reduced nuclear AR levels
- AR protein (AR in C4-2 cells; [2]): dose dependent decrease
- PSA levels (AR in C4-2 cells; [2]): dose dependent decrease
- general health of mice (AR; 0.5 mg/day to 10 mg/day intraperitoneal injection for 7 days): outwardly healthy
- androgen sensitive prostate epithelium (AR; adult male mice, 7 days (10 mg/day in FIG. 17b)): atrophy
- seminal vesicles dose-dependent involution, beginning at dose (AR; adult male mice, intraperitoneal injection for 7 days): ≥ 2.5 mg/day
